Assay results reported in US20210371385A1, “POLYMORPHIC AND AMORPHOUS FORMS OF ISOQUINOLINONE AND METHODS OF USE THEREOF” (Sojournix, Inc., priority 2018, published 2021).

Tests used:
[1] = Intrinsic Dissolution Rate (IDR); format: physicochemical; settings: FeSSIF media, presence of bile components
Method: The Intrinsic Dissolution Rate (IDR) was calculated for a beta polymorph form of SJB-01. A tablet of the compound was pressed and put into a dissolution chamber. It was subsequently measured how fast the substance was dissolved from the surface into the solvent. Initially, the experiment was performed in a standard buffer (0.001 M HCl pH 3.0), reflecting the stomach conditions at fastened state.
Due to the high impact of bile components on solubilisation of SJB-01, IDR was performed in FeSSIF media, reflecting the fed-state in humans.

[2] = Log P/D determination, pH-metric titration with 1-octanol; format: physicochemical
Method: Log P and log D were determined for SJB-01 free base using 1-octanol as the partition solvent (Table 2). Log P was experimentally determined to be 4.73 which is larger than the predicted value for the structure, the corresponding Bjerrum plot is shown in FIG. 6. A log D profile (FIG. 5) was constructed for SJB-01 based on the distribution of the API at a particular pH.
pKa and log P/D data were collected using Pion PULSE Attain software. The Pion PULSE solutions consisted of using ionic strength adjusted water (0.15 M KCl), 0.5 M HCl and […] which were used for all titrations. Purge gas (argon) was used for HEPES (probe validation), KHP (KOH concentration determination), aqueous potentiometric and log P/D potentiometric titrations.
The Pion PULSE was equipped with an overhead variable speed stirrer, double junction Ag/AgCl pH probe, UV probe with a 1 cm pathlength, Carl-Zeiss spectrophotometer with 256-bit photodiode array, and a temperature probe. The pH of the instrument can range from 1.8-12.2. The compatible co-solvents are MeOH, EtOH, ACN, DMSO and 1,4-dioxane. pKa measurements were completed by either potentiometric or UV-metric methods. log P/D was measured using water saturated 1-octanol as the partitioning solvent. Data was refined using the Pion PULSE refine software.

[3] = Chemical stability (oxygen, pH, light, PEG 400); format: physicochemical
[4] = Log P/D7.4 by shake flask method, octanol-buffer; format: physicochemical; settings: pH 7.4, octanol-buffer two phase system
Method: The Log P/D7.4 value was determined by the shake flask method in an octanol-buffer two phase systems.

[5] = Maximal absorbable dose (MAD) calculation; set-up: species or system humans
Method: The maximal absorbable dose (MAD) of SJB-01, as described by Curatolo (1998), can be calculated according to the following equation: […]
Using this equation, the maximal absorbable dose is 16 mg for SJB-01.

In the case of CCNn1c(C)c(C(=O)N[C@H](c2ccccc2)C2CC2)c2cccc(F)c2c1=O [SJB-01, 2-Ethylamino-8-fluoro-3-methyl-1-oxo-1,2-dihydro-isoquinoline-4-carboxylic acid ((S)-cyclopropyl-phenyl-methyl)-amide], the “IDR in FeSSIF media versus standard buffer” value [1] is reported as “not further increased”, the logD ([2]; 1-octanol/water, pH 7.4, pH 7.40, 1-octanol, from log D profile, read-out: log D7.40) is reported as 3.04 and the logP ([2]; neutral species, 1-octanol:water, 25.3 °C, pH-metric, three titrations) is reported as 4.73 ± 0.14. For the same compound, the “Time stable in PEG 400” value ([3]; PEG 400, room temperature, covered from light) was “at least 4 months”, the Compound decomposed ([3]; aqueous solution, extreme light exposure, 24 hr) was 100% and the “Stability to oxygen and pH” value ([3]; exposed to oxygen and pH 2, 4, 6, and 7.4) was “stable”. The Compound left ([3]; solid compound, extreme light exposure, 24 hr) was roughly 86%, the logP [4] was 3.3 and the “Maximal absorbable dose (MAD)” value ([5]; MAD=S*Ka*SIWV*SITT, S solubility at pH 6.5) was 16 mg. For the same compound, the “Maximal absorbable dose (MAD)” value ([5]; humans, solubility in 0.001M HCl pH 3.0, data from the β-form) was 16 mg, the “Maximal absorbable dose (MAD)” value ([5]; humans, solubility in FaSSIF, data from the β-form) was 22 mg and the “Maximal absorbable dose (MAD)” value ([5]; humans, solubility in FeSSIF (fed state), data from the β-form) was 38 mg.
